Measurements taken from patent publication US20250206727A1, “HETEROCYCLIC SUBSTITUTED AROMATIC COMPOUND, PREPARATION METHOD THEREFOR, HERBICIDAL COMPOSITION AND APPLICATION” (QINGDAO KINGAGROOT CHEMICAL COMPOUND CO., LTD., priority 2022, published 2025).

Tests used:
Test in all cases: Post-emergence test on weeds (greenhouse, spray at 2-3 leaf stage)
Format in all cases: in vivo
Set-up in all cases: key: Level 10: completely dead; Level 9: growth control rate greater than or equal to 90% and less than 100%; Level 8: growth control rate greater than or equal to 80% and less than 90%; Level 7: growth control rate greater than or equal to 70% and less than 80%; Level 6: growth control rate greater than or equal to 60% and less than 70%; Level 5: growth control rate greater than or equal to 50% and less than 60%; Level 4: growth control rate greater than or equal to 40% and less than 50%; Level 3: growth control rate greater than or equal to 30% and less than 40%; Level 2: growth control rate greater than or equal to 20% and less than 30%; Level 1: growth control rate less than 20%; Level 0: no effect
Details in all cases: 60 g a.i./ha, 3 weeks after application
Amaranthus retroflexus = system: Amaranthus retroflexus
How it was run: (§1)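 Pot-grown plants were spray-tower treated two weeks after sowing with compound in acetone/Tween 80 plus 1.5 L/ha methyl oleate EC, at rates from 500 to 7.5 g a.i./ha. Fresh-weight growth control was scored 0–10 after 3 weeks in the greenhouse, averaged over triplicates.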

Veronica polita = system: Veronica polita
How it was run: as §1

Setaria viridis = system: Setaria viridis
How it was run: as §1

Abutilon theophrasti = system: Abutilon theophrasti
How it was run: as §1

Echinochloa crus-galli = system: Echinochloa crus-galli
How it was run: as §1

Digitaria sanguinalis = system: Digitaria sanguinalis
How it was run: as §1

C=CCCCOC(=O)C1(C)ON=C(c2cc(-c3ncc(C(F)(F)F)cc3Cl)c(F)cc2Cl)O1 (stereo not drawn) [Compound 106]
10: activity level (fresh weight growth control rate), Amaranthus retroflexus (Amaranthus retroflexus) | activity level (fresh weight growth control rate), Veronica polita (Veronica polita) | activity level (fresh weight growth control rate), Setaria viridis (Setaria viridis) | activity level (fresh weight growth control rate), Abutilon theophrasti (Abutilon theophrasti) | activity level (fresh weight growth control rate), Echinochloa crus-galli (Echinochloa crus-galli) | activity level (fresh weight growth control rate), Digitaria sanguinalis (Digitaria sanguinalis)

COCOC(=O)C1(C)ON=C(c2cc(-c3ncc(C(F)(F)F)cc3Cl)c(F)cc2Cl)O1 (stereo not drawn) [Compound 108]
10: activity level (fresh weight growth control rate), Amaranthus retroflexus (Amaranthus retroflexus) | activity level (fresh weight growth control rate), Veronica polita (Veronica polita) | activity level (fresh weight growth control rate), Setaria viridis (Setaria viridis) | activity level (fresh weight growth control rate), Abutilon theophrasti (Abutilon theophrasti) | activity level (fresh weight growth control rate), Echinochloa crus-galli (Echinochloa crus-galli) | activity level (fresh weight growth control rate), Digitaria sanguinalis (Digitaria sanguinalis)

CSCOC(=O)C1(C)ON=C(c2cc(-c3ncc(C(F)(F)F)cc3Cl)c(F)cc2Cl)O1 (stereo not drawn) [Compound 109]
10: activity level (fresh weight growth control rate), Amaranthus retroflexus (Amaranthus retroflexus) | activity level (fresh weight growth control rate), Veronica polita (Veronica polita) | activity level (fresh weight growth control rate), Setaria viridis (Setaria viridis) | activity level (fresh weight growth control rate), Abutilon theophrasti (Abutilon theophrasti) | activity level (fresh weight growth control rate), Echinochloa crus-galli (Echinochloa crus-galli) | activity level (fresh weight growth control rate), Digitaria sanguinalis (Digitaria sanguinalis)

COCCOC(=O)C1(C)ON=C(c2cc(-c3ncc(C(F)(F)F)cc3Cl)c(F)cc2Cl)O1 (stereo not drawn) [Compound 110]
10: activity level (fresh weight growth control rate), Amaranthus retroflexus (Amaranthus retroflexus) | activity level (fresh weight growth control rate), Veronica polita (Veronica polita) | activity level (fresh weight growth control rate), Setaria viridis (Setaria viridis) | activity level (fresh weight growth control rate), Abutilon theophrasti (Abutilon theophrasti) | activity level (fresh weight growth control rate), Echinochloa crus-galli (Echinochloa crus-galli) | activity level (fresh weight growth control rate), Digitaria sanguinalis (Digitaria sanguinalis)

COCCOC(=O)C1(C)ON=C(c2cc(-c3ncc(Cl)cc3Cl)c(F)cc2Cl)O1 (stereo not drawn) [Compound 111]
10: activity level (fresh weight growth control rate), Amaranthus retroflexus (Amaranthus retroflexus) | activity level (fresh weight growth control rate), Veronica polita (Veronica polita) | activity level (fresh weight growth control rate), Setaria viridis (Setaria viridis) | activity level (fresh weight growth control rate), Abutilon theophrasti (Abutilon theophrasti) | activity level (fresh weight growth control rate), Echinochloa crus-galli (Echinochloa crus-galli) | activity level (fresh weight growth control rate), Digitaria sanguinalis (Digitaria sanguinalis)

COCCOC(=O)C1ON=C(c2cc(-c3ncc(C(F)(F)F)cc3Cl)c(F)cc2Cl)O1 (stereo not drawn) [Compound 112]
10: activity level (fresh weight growth control rate), Amaranthus retroflexus (Amaranthus retroflexus) | activity level (fresh weight growth control rate), Veronica polita (Veronica polita) | activity level (fresh weight growth control rate), Setaria viridis (Setaria viridis) | activity level (fresh weight growth control rate), Abutilon theophrasti (Abutilon theophrasti) | activity level (fresh weight growth control rate), Echinochloa crus-galli (Echinochloa crus-galli) | activity level (fresh weight growth control rate), Digitaria sanguinalis (Digitaria sanguinalis)

COCCCOC(=O)C1(C)ON=C(c2cc(-c3ncc(C(F)(F)F)cc3Cl)c(F)cc2Cl)O1 (stereo not drawn) [Compound 114]
10: activity level (fresh weight growth control rate), Amaranthus retroflexus (Amaranthus retroflexus) | activity level (fresh weight growth control rate), Veronica polita (Veronica polita) | activity level (fresh weight growth control rate), Setaria viridis (Setaria viridis) | activity level (fresh weight growth control rate), Abutilon theophrasti (Abutilon theophrasti) | activity level (fresh weight growth control rate), Echinochloa crus-galli (Echinochloa crus-galli) | activity level (fresh weight growth control rate), Digitaria sanguinalis (Digitaria sanguinalis)

COCCCOC(=O)C1ON=C(c2cc(-c3ncc(C(F)(F)F)cc3Cl)c(F)cc2Cl)O1 (stereo not drawn) [Compound 115]
10: activity level (fresh weight growth control rate), Amaranthus retroflexus (Amaranthus retroflexus) | activity level (fresh weight growth control rate), Veronica polita (Veronica polita) | activity level (fresh weight growth control rate), Setaria viridis (Setaria viridis) | activity level (fresh weight growth control rate), Abutilon theophrasti (Abutilon theophrasti) | activity level (fresh weight growth control rate), Echinochloa crus-galli (Echinochloa crus-galli) | activity level (fresh weight growth control rate), Digitaria sanguinalis (Digitaria sanguinalis)

CC(C#N)OC(=O)C1(C)ON=C(c2cc(-c3ncc(C(F)(F)F)cc3Cl)c(F)cc2Cl)O1 (stereo not drawn) [Compound 116]
10: activity level (fresh weight growth control rate), Amaranthus retroflexus (Amaranthus retroflexus) | activity level (fresh weight growth control rate), Veronica polita (Veronica polita) | activity level (fresh weight growth control rate), Setaria viridis (Setaria viridis) | activity level (fresh weight growth control rate), Abutilon theophrasti (Abutilon theophrasti) | activity level (fresh weight growth control rate), Echinochloa crus-galli (Echinochloa crus-galli) | activity level (fresh weight growth control rate), Digitaria sanguinalis (Digitaria sanguinalis)

CC1(C(=O)OCC2CC2)ON=C(c2cc(-c3ncc(C(F)(F)F)cc3Cl)c(F)cc2Cl)O1 (stereo not drawn) [Compound 126]
10: activity level (fresh weight growth control rate), Amaranthus retroflexus (Amaranthus retroflexus) | activity level (fresh weight growth control rate), Veronica polita (Veronica polita) | activity level (fresh weight growth control rate), Setaria viridis (Setaria viridis) | activity level (fresh weight growth control rate), Abutilon theophrasti (Abutilon theophrasti) | activity level (fresh weight growth control rate), Echinochloa crus-galli (Echinochloa crus-galli) | activity level (fresh weight growth control rate), Digitaria sanguinalis (Digitaria sanguinalis)

CC1(C(=O)OC2CCCC2)ON=C(c2cc(-c3ncc(C(F)(F)F)cc3Cl)c(F)cc2Cl)O1 (stereo not drawn) [Compound 127]
10: activity level (fresh weight growth control rate), Amaranthus retroflexus (Amaranthus retroflexus) | activity level (fresh weight growth control rate), Veronica polita (Veronica polita) | activity level (fresh weight growth control rate), Setaria viridis (Setaria viridis) | activity level (fresh weight growth control rate), Abutilon theophrasti (Abutilon theophrasti) | activity level (fresh weight growth control rate), Echinochloa crus-galli (Echinochloa crus-galli) | activity level (fresh weight growth control rate), Digitaria sanguinalis (Digitaria sanguinalis)
